Source: publication PMC6188661 (Journal of medicinal chemistry, 2013)
Starred links: 1 amine or outer side, 2 acyl side, 3 side chain; linkers in the order of their positions; H or OH if unused. Non-standard residues stand in square brackets, D forms with d. Residues, ends and D or L forms follow the SMILES beside them. αMeNva(5-ylidene) = C[C@@](CCC=[*:3])(N[*:1])C(=O)[*:2]; S5 = C=CCCC[C@](C)(N)C(=O)O

Experiments:
HIV-1 integrase (IN) [1] = target: T1, HIV-1 integrase (IN) (Human immunodeficiency virus type 1 group M subtype B, UniProt P04585); assay: In vitro HIV-1 IN catalytic activity inhibition, 3′-processing; assay type: biochemical
HIV-1 integrase (IN) [2] = target: T1, HIV-1 integrase (IN); assay: In vitro HIV-1 IN catalytic activity inhibition, strand transfer; assay type: biochemical
MT-4 cells = assay: Cytotoxicity in MT-4 cells; assay type: cell-based; details: 50% cell-death in same cells (MT-4)
HIV-1 = details: 50% cytoprotective activity in HIV-1 infected MT-4 cells

For `C=CCCC[C@](C)(NC(=O)[C@H](CC(C)C)NC(=O)[C@H](CCCCN)NC(=O)[C@H](CC(C)C)NC(=O)[C@](C)(CCCC=C)NC(=O)[C@H](Cc1ccccc1)NC(=O)[C@H](Cc1ccc(O)cc1)NC(=O)[C@H](C)NC(=O)[C@@H](N)[C@@H](C)O)C(=O)NCC(=O)N[C@@H](CCCNC(=N)N)C(=O)N[C@@H](Cc1c[nH]c2ccccc12)C(N)=O` [NLH5] (H-TAYF[S5]LKL[S5]GRW-NH2; N-terminus assumed), the IC50 (HIV-1 integrase (IN) [1]) was 9 ± 1 µM, the IC50 (HIV-1 integrase (IN) [2]) was 6 ± 1 µM and the CC50 (MT-4 cells) was 28 µM. The EC50 (HIV-1) was 28 µM.

`C=CCC[C@](C)(NC(=O)[C@H](CC(C)C)NC(=O)[C@H](CCCCN)NC(=O)[C@H](CC(C)C)NC(=O)[C@](C)(CCC=C)NC(=O)[C@H](Cc1ccccc1)NC(=O)[C@H](Cc1ccc(O)cc1)NC(=O)[C@H](C)NC(=O)[C@@H](N)[C@@H](C)O)C(=O)NCC(=O)N[C@@H](CCCNC(=N)N)C(=O)N[C@@H](Cc1c[nH]c2ccccc12)C(N)=O` [NLH11] (H-TAYF[αMeNva(5-ylidene)]LKL[αMeNva(5-ylidene)]GRW-NH2; N-terminus assumed) gave an IC50 (HIV-1 integrase (IN) [1]) of 74 ± 11 µM, an IC50 (HIV-1 integrase (IN) [2]) of 68 ± 5 µM and a CC50 (MT-4 cells) of 18 µM. For the same compound, the EC50 (HIV-1) was > 18 µM.
